Results reported in ChEMBL document CHEMBL1131871, “Piperidinylpyrroles: design, synthesis and binding properties of novel and selective dopamine D4 receptor ligands” (Bioorg Med Chem Lett, 1999).

Key:
D(2) dopamine receptor [1] = target: T1, D(2) dopamine receptor (Homo sapiens, UniProt P14416); test: Displacement of [3H]spiperone from human Dopamine receptor D2L expressed in CHO cells; type: cell-based
D(4) dopamine receptor = target: T2, D(4) dopamine receptor (Homo sapiens, UniProt P21917); test: Displacement of [3H]spiperone from human Dopamine receptor D4.4 expressed in CHO cells; type: cell-based
T2 sequence (P21917 whole entry): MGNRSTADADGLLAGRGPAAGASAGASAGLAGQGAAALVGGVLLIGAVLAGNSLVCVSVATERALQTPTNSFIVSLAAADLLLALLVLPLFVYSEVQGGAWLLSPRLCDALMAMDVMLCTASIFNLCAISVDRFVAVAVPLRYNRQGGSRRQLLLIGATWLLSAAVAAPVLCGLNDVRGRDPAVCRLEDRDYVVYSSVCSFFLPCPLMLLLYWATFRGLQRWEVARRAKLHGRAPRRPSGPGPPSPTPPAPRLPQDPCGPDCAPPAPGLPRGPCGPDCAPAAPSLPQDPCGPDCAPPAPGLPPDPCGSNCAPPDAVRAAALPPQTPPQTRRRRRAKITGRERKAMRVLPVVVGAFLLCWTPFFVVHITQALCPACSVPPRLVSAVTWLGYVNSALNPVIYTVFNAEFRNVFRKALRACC

D(1A) dopamine receptor = D(1A) dopamine receptor (Bos taurus, UniProt Q95136); test: Displacement of [3H]SCH-23390 from bovine striatal membrane Dopamine receptor D1
D(3) dopamine receptor = D(3) dopamine receptor (Homo sapiens, UniProt P35462); test: Displacement of [3H]spiperone from human Dopamine receptor D3 expressed in CHO cells; type: cell-based
D(2) dopamine receptor [2] = target: T1, D(2) dopamine receptor; test: Displacement of [3H]spiperone from human Dopamine receptor D2S expressed in CHO cells; type: cell-based

Chain of D(1A) dopamine receptor (Q95136 whole entry): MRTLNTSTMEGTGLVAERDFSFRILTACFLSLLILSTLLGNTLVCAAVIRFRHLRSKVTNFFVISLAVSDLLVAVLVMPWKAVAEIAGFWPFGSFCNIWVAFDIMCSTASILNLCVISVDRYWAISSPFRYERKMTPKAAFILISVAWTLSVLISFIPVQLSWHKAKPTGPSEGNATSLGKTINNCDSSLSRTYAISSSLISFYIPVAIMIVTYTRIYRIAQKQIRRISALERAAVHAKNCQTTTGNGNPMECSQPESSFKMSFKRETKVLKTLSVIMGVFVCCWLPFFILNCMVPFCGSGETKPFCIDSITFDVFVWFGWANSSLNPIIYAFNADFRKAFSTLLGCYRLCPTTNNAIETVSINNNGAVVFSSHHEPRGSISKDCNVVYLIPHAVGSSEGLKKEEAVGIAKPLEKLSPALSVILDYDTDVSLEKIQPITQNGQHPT
T1 sequence (P14416 whole entry): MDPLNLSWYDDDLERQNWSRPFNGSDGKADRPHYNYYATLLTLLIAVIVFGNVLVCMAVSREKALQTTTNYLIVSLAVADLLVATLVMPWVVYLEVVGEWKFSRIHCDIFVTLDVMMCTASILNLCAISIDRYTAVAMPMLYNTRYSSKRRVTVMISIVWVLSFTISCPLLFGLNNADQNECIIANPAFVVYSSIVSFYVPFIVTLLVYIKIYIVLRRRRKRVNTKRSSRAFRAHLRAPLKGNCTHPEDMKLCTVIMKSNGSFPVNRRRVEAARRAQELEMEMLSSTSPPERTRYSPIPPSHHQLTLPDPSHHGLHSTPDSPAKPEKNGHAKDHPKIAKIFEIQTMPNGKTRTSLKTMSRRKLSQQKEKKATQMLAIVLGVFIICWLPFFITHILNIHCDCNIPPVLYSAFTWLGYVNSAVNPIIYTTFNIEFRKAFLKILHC
Chain of D(3) dopamine receptor (P35462 whole entry): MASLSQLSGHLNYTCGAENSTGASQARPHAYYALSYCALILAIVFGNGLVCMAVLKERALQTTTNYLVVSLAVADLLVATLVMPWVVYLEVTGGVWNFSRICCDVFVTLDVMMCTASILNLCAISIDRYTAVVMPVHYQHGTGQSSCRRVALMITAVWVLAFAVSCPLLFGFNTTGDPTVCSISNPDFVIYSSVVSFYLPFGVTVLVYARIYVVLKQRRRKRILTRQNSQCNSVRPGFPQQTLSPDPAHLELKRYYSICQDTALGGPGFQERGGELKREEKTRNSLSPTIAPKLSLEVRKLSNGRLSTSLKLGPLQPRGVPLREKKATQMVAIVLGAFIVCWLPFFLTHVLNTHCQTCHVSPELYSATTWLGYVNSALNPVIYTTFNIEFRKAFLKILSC

SMILES: c1ccc(CN2CCC(n3cccc3-c3cnco3)CC2)cc1
- Ki (D(2) dopamine receptor [1]): 0.61 µM
- Ki (D(4) dopamine receptor): 63 nM
- Ki (D(1A) dopamine receptor): 10 µM
- Ki (D(3) dopamine receptor): 0.77 µM
- Ki (D(2) dopamine receptor [2]): 0.32 µM

SMILES: c1ccc(CN2CCC(n3ccc(-c4cnco4)c3)CC2)cc1
- Ki (D(2) dopamine receptor [1]): 3.4 µM
- Ki (D(4) dopamine receptor): 130 nM
- Ki (D(1A) dopamine receptor): 39 µM
- Ki (D(3) dopamine receptor): 6.8 µM
- Ki (D(2) dopamine receptor [2]): 3.2 µM

SMILES: C[Si](C)(C)C#Cc1cccn1C1CCN(Cc2ccccc2)CC1
- Ki (D(2) dopamine receptor [1]): 6.2 µM
- Ki (D(4) dopamine receptor): 2700 nM
- Ki (D(1A) dopamine receptor): 14 µM
- Ki (D(3) dopamine receptor): 7.7 µM
- Ki (D(2) dopamine receptor [2]): 4.9 µM

SMILES: N#CC(C#N)=Cc1ccn(C2CCN(Cc3ccccc3)CC2)c1
- Ki (D(2) dopamine receptor [1]): 13 µM
- Ki (D(4) dopamine receptor): 230 nM
- Ki (D(1A) dopamine receptor): 14 µM
- Ki (D(3) dopamine receptor): 7 µM
- Ki (D(2) dopamine receptor [2]): 18 µM

SMILES: N#CC(C#N)=Cc1cccn1C1CCN(Cc2ccccc2)CC1
- Ki (D(2) dopamine receptor [1]): 11 µM
- Ki (D(4) dopamine receptor): 280 nM
- Ki (D(1A) dopamine receptor): 15 µM
- Ki (D(3) dopamine receptor): 5.1 µM
- Ki (D(2) dopamine receptor [2]): 7.8 µM

SMILES: Ic1cccn1C1CCN(Cc2ccccc2)CC1
- Ki (D(2) dopamine receptor [1]): 8.5 µM
- Ki (D(4) dopamine receptor): 1500 nM
- Ki (D(1A) dopamine receptor): 11 µM
- Ki (D(3) dopamine receptor): 2.6 µM
- Ki (D(2) dopamine receptor [2]): 5.3 µM

SMILES: C#Cc1cccn1C1CCN(Cc2ccccc2)CC1
- Ki (D(2) dopamine receptor [1]): 6.6 µM
- Ki (D(4) dopamine receptor): 940 nM
- Ki (D(1A) dopamine receptor): 14 µM
- Ki (D(3) dopamine receptor): 7.9 µM
- Ki (D(2) dopamine receptor [2]): 6.3 µM

SMILES: O=Cc1cccn1C1CCN(Cc2ccccc2)CC1
- Ki (D(2) dopamine receptor [1]): 1.4 µM
- Ki (D(4) dopamine receptor): 200 nM
- Ki (D(1A) dopamine receptor): 5.8 µM
- Ki (D(3) dopamine receptor): 2.5 µM
- Ki (D(2) dopamine receptor [2]): 1.5 µM

SMILES: c1ccc(CN2CCC(n3cccc3)CC2)cc1
- Ki (D(2) dopamine receptor [1]): 8.5 µM
- Ki (D(4) dopamine receptor): 1100 nM
- Ki (D(1A) dopamine receptor): 34 µM
- Ki (D(3) dopamine receptor): 15 µM
- Ki (D(2) dopamine receptor [2]): 9.8 µM

SMILES: O=Cc1ccn(C2CCN(Cc3ccccc3)CC2)c1
- Ki (D(2) dopamine receptor [1]): 49 µM
- Ki (D(4) dopamine receptor): 960 nM
- Ki (D(1A) dopamine receptor): 61 µM
- Ki (D(3) dopamine receptor): 31 µM
- Ki (D(2) dopamine receptor [2]): 65 µM

SMILES: C(#Cc1cccn1C1CCN(Cc2ccccc2)CC1)c1ccccc1
- Ki (D(2) dopamine receptor [1]): 10 µM
- Ki (D(4) dopamine receptor): 3300 nM
- Ki (D(1A) dopamine receptor): 16 µM
- Ki (D(3) dopamine receptor): 8.7 µM
- Ki (D(2) dopamine receptor [2]): 8.3 µM
